{"source": "patent US8546438B2", "about": "“Substituted (thiophenyl-carbonyl)imidazolidinones, and use thereof” (priority 2008, dated 2013)", "key": {"HIV-1LAI": {"system": "HIV-1LAI", "assay": "H9 assay with wild-type HIV-1LAI (AlamarBlue, supernatant infection)", "format": "cell-based", "conditions": "Human immunodeficiency virus 1, H9 cells, 10% FCS", "experimental": "For the mixture for a 96-well MTP, 3 million PBLs are pelleted, suspended in 1 ml of RPMI 1640 medium/10% FCS and incubated together with a suitable amount of HIV-1LAI (NIH AIDS Research & Reference Reagent Program, Germantown, USA) at 37° C. for 2 hours (pellet infection). Unadsorbed viruses are subsequently washed out with PBS, and the infected cells are pelleted again and suspended in 18 ml of RPMI 1640 medium/10% FCS/interleukin-2 (40 U/ml). 180 μl thereof are pipetted into each well of a white 96-well MTP with 20 μl of test substance in suitable dilution. Alternatively, after preparation of the substance dilutions in the MTP, the HIV is pipetted in together with the cells and is not washed out again (supernatant infection). In order to avoid edge effects, the wells at the edge of the MTP are not used for substance dilutions. The second vertical row of the MTP contains only infected cells (virus control) and the eleventh vertical row only uninfected cells (cell control), in each case in RPMI 1640 medium/10% FCS/interleukin-2 (40 U/ml). The other wells of the MTP contain the compounds of the invention in various concentrations starting from the third vertical row, from which the test substances are diluted in 3-fold steps up to the tenth vertical row 3^7-fold. The test substances are dissolved in DMSO, whereby the final DMSO concentration in the test mixture is 1%. The test mixtures are incubated at 37° C./5% CO2. After 5 and 7 days, 50 μl of cell-free supernatant are removed from each well to determine the amount of p24 present by means of a p24 ELISA (HIV-1 p24^CA Antigen Capture Assay Kit, NCI-Frederick Cancer Research and Development Center, Frederick, USA). From the resulting values of the photometric evaluation (450/620 nm) the EC50 values of the test substances are determined as the concentration at which the amount of p24 is 50% of the untreated infected cells.\nAlternatively, H9 cells (ATCC, Wesel, Germany) are employed instead of PBLs for testing the test substances. H9 cells are incubated in RPMI 1640 medium with 2% or 10% FCS as a HIV-1LAI supernatant infection at 37° C./5% CO2, (20 μl of substance dilution and 80 μl of cells/virus per well) in accordance with the pattern described above for 5 days. Subsequently, 10 μl of AlamarBlue (Invitrogen, Karlsruhe, Germany) are added to each well, and the MTPs are incubated at 37° C. for 3 hours before the fluorimetric evaluation takes place (544/590 nm). The resulting values are about 40 000 for the untreated uninfected cells and about 7000 for the untreated infected cells. In the low concentration range, the EC50 values of the test substances are determined as the concentration at which the fluorescence is 50% of the untreated uninfected cells (in each case subtracting the values of the untreated infected cells). In addition, in the high concentration range, the CC50 values of the test substances are determined as the concentration at which the fluorescence is 50% of the untreated uninfected cells (in each case subtracting the values of the untreated infected cells)."}, "HIV-1NL4-3 wt": {"system": "HIV-1NL4-3 wt", "assay": "Light assay with wild-type HI reporter virus in MT4 7F2 cells", "format": "cell-based", "conditions": "Human immunodeficiency virus 1, read-out: EC50(nM) MT4 7F2 cells HIV-1NL4-3 wt 2% FCS", "experimental": "(§1) For the mixture for a 96-well MTP, 3 million MT4 7F2 cells are pelleted, suspended in 1 ml of RPMI 1640 medium without phenol red (Invitrogen, Karlsruhe, Germany)/10% FCS/10% AIM-V (Invitrogen, Karlsruhe, Germany) and incubated together with a suitable amount of the corresponding HIV-1NL4-3 reporter virus at 37° C. for 2 hours (pellet infection). Unadsorbed viruses are subsequently washed out with PBS, and the infected cells are pelleted again and suspended in 8 ml of RPMI 1640 medium without phenol red/2% or 10% FCS/10% AIM-V. 80 μl thereof are pipetted into each well of a white 96-well MTP with 20 μl of test substance in suitable dilution. To avoid edge effects, the wells on the edge of the MTP are not used for substance dilutions. The second vertical row of the MTP contains only infected cells (virus control) and the eleventh vertical row only uninfected cells (cell control), in each case in RPMI 1640 medium without phenol red/2% or 10% FCS/10% AIM-V. The other wells of the MTP contain the compounds of the invention in various concentrations starting from the third vertical row, from which the test substances are diluted in 3-fold steps up to the tenth vertical row 3^7-fold. The test substances are dissolved in DMSO, whereby the final DMSO concentration in the test mixture is 1%. The test mixtures are incubated at 37° C./5% CO2 for five days and, after the addition of 15 μl of Lu164 substrate (5 mg/ml coelenterazine dissolved in 30 μM glutathione/DMSO, 100 mM NaCl, 1M MES, 100 mM glutathione), evaluated by luminometry. The resulting values are in the region of 1 000 000 RLUs (relative light units) for the virus control and 300 to 400 RLUs for the cell control. The EC50 values of the test substances are determined as the concentration at which the virus replication measured in RLUs is 50% of the untreated infected cells."}, "HIV-1NL4-3 K103N-Y181C": {"system": "HIV-1NL4-3 K103N-Y181C", "assay": "Light assay with inhibitor-resistant HI reporter virus in MT4 7F2 cells", "format": "cell-based", "conditions": "Human immunodeficiency virus 1, read-out: EC50(nM) MT4 7F2 cells HIV-1NL4-3 K103N-Y181C 2% FCS", "experimental": "as §1"}, "reverse transcriptase": {"biological_target": "T1, reverse transcriptase (Human immunodeficiency virus type 1 group M subtype B, UniProt P04585)", "T1 construct": "negative control (mixture without reverse transcriptase); purchased Roche Diagnostics GmbH, Mannheim, Germany", "assay": "Biochemical reverse transcriptase assay (Reverse Transcriptase Assay, colorimetric, Roche)", "conditions": "read-out: IC50(nM) RT assay", "experimental": "The “Reverse Transcriptase Assay, colorimetric” (Roche Diagnostics GmbH, Mannheim, Germany) is used in accordance with the manufacturer's information. The test substances are dissolved in DMSO and are used in the test diluted in 5-fold steps (final DMSO concentration 1%). The resulting values of the photometric evaluation (405/492 nm) are less than 0.1 for the negative control (mixture without reverse transcriptase) and are in the region of 1.5 for the positive control (mixture without test substance). The IC50 values of the test substances are determined as the concentration of the test substance dilution at which the measured optical density is 50% of the positive control."}}}
{"smiles": "N#Cc1cccc(-c2cc(C(=O)N3CNC(=O)C3)sc2-c2cc(F)cc(Cl)c2)c1", "note": "[Example 1, 3-{2-(3-Chloro-5-fluorophenyl)-5-[(4-oxoimidazolidin-1-yl)carbonyl]thiophen-3-yl}benzenecarbonitrile]", "values": [{"measurement": "EC50", "setting": "HIV-1LAI", "value": 9, "unit": "nM"}, {"measurement": "EC50", "setting": "HIV-1NL4-3 wt", "value": 1, "unit": "nM"}, {"measurement": "EC50", "setting": "HIV-1NL4-3 K103N-Y181C", "value": 45, "unit": "nM"}]}
{"smiles": "O=C1CN(C(=O)c2cc(-c3ccc(F)c(Cl)c3)c(-c3cc(F)cc(Cl)c3)s2)CN1", "note": "[Example 2, 1-{[4-(3-Chloro-4-fluorophenyl)-5-(3-chloro-5-fluorophenyl)thiophen-2-yl]carbonyl}imidazolidin-4-one]", "values": [{"measurement": "IC50", "setting": "reverse transcriptase", "value": 920, "unit": "nM"}, {"measurement": "EC50", "setting": "HIV-1LAI", "value": 68, "unit": "nM"}, {"measurement": "EC50", "setting": "HIV-1NL4-3 wt", "value": 20, "unit": "nM"}, {"measurement": "EC50", "setting": "HIV-1NL4-3 K103N-Y181C", "value": 176, "unit": "nM"}]}
{"smiles": "N#Cc1cccc(-c2cc(C(=O)N3CNC(=O)C3)sc2-c2cccc(Cl)c2)c1", "note": "[Example 3, 3-{2-(3-Chlorophenyl)-5-[(4-oxoimidazolidin-1-yl)carbonyl]thiophen-3-yl}benzenecarbonitrile]", "values": [{"measurement": "IC50", "setting": "reverse transcriptase", "value": 740, "unit": "nM"}, {"measurement": "EC50", "setting": "HIV-1LAI", "value": 71, "unit": "nM"}, {"measurement": "EC50", "setting": "HIV-1NL4-3 wt", "value": 5, "unit": "nM"}, {"measurement": "EC50", "setting": "HIV-1NL4-3 K103N-Y181C", "value": 100, "unit": "nM"}]}
{"smiles": "N#Cc1cc(-c2cc(C(=O)N3CNC(=O)C3)sc2-c2cc(F)cc(Cl)c2)ccc1F", "note": "[Example 4, 5-{2-(3-Chloro-5-fluorophenyl)-5-[(4-oxoimidazolidin-1-yl)carbonyl]thiophen-3-yl}-2-fluorobenzenecarbonitrile]", "values": [{"measurement": "EC50", "setting": "HIV-1LAI", "value": 12, "unit": "nM"}, {"measurement": "EC50", "setting": "HIV-1NL4-3 wt", "value": "< 1.5", "unit": "nM"}, {"measurement": "EC50", "setting": "HIV-1NL4-3 K103N-Y181C", "value": 44, "unit": "nM"}]}
{"smiles": "O=C1CN(C(=O)c2cc(-c3cccc(Cl)c3)c(-c3cc(F)cc(Cl)c3)s2)CN1", "note": "[Example 5, 1-{[5-(3-Chloro-5-fluorophenyl)-4-(3-chlorophenyl)thiophen-2-yl]carbonyl}imidazolidin-4-one]", "values": [{"measurement": "IC50", "setting": "reverse transcriptase", "value": 2170, "unit": "nM"}, {"measurement": "EC50", "setting": "HIV-1LAI", "value": 85, "unit": "nM"}, {"measurement": "EC50", "setting": "HIV-1NL4-3 wt", "value": 21, "unit": "nM"}, {"measurement": "EC50", "setting": "HIV-1NL4-3 K103N-Y181C", "value": 258, "unit": "nM"}]}
{"smiles": "N#Cc1cc(-c2sc(C(=O)N3CNC(=O)C3)cc2-c2cccc(Cl)c2)ccc1F", "note": "[Example 6, 5-{3-(3-Chlorophenyl)-5-[(4-oxoimidazolidin-1-yl)carbonyl]thiophen-2-yl}-2-fluorobenzenecarbonitrile]", "values": [{"measurement": "EC50", "setting": "HIV-1LAI", "value": 900, "unit": "nM"}, {"measurement": "EC50", "setting": "HIV-1NL4-3 wt", "value": 165, "unit": "nM"}, {"measurement": "EC50", "setting": "HIV-1NL4-3 K103N-Y181C", "value": 348, "unit": "nM"}]}
{"smiles": "O=C1CN(C(=O)c2cc(-c3cccc(Cl)c3)c(-c3cccc(OC(F)(F)F)c3)s2)CN1", "note": "[Example 7, 1-({4-(3-Chlorophenyl)-5-[3-(trifluoromethoxy)phenyl]thiophen-2-yl}carbonyl)imidazolidin-4-one]", "values": [{"measurement": "EC50", "setting": "HIV-1LAI", "value": 1410, "unit": "nM"}, {"measurement": "EC50", "setting": "HIV-1NL4-3 wt", "value": 100, "unit": "nM"}, {"measurement": "EC50", "setting": "HIV-1NL4-3 K103N-Y181C", "value": 150, "unit": "nM"}]}
{"smiles": "N#Cc1cc(-c2cc(C(=O)N3CNC(=O)C3)sc2-c2cccc(Cl)c2)ccc1F", "note": "[Example 8, 5-{2-(3-Chlorophenyl)-5-[(4-oxoimidazolidin-1-yl)carbonyl]thiophen-3-yl}-2-fluorobenzenecarbonitrile]", "values": [{"measurement": "EC50", "setting": "HIV-1LAI", "value": 103, "unit": "nM"}, {"measurement": "EC50", "setting": "HIV-1NL4-3 wt", "value": 5, "unit": "nM"}, {"measurement": "EC50", "setting": "HIV-1NL4-3 K103N-Y181C", "value": 121, "unit": "nM"}]}
{"smiles": "O=C1CN(C(=O)c2cc(-c3ccc(F)c(Cl)c3)c(-c3cccc(Cl)c3)s2)CN1", "note": "[Example 9, 1-{[4-(3-Chloro-4-fluorophenyl)-5-(3-chlorophenyl)thiophen-2-yl]carbonyl}imidazolidin-4-one]", "values": [{"measurement": "EC50", "setting": "HIV-1LAI", "value": 593, "unit": "nM"}, {"measurement": "EC50", "setting": "HIV-1NL4-3 wt", "value": 35, "unit": "nM"}, {"measurement": "EC50", "setting": "HIV-1NL4-3 K103N-Y181C", "value": 260, "unit": "nM"}]}
{"smiles": "N#Cc1cc(F)cc(-c2sc(C(=O)N3CNC(=O)C3)cc2-c2ccc(F)c(Cl)c2)c1", "note": "[Example 10, 3-{3-(3-Chloro-4-fluorophenyl)-5-[(4-oxoimidazolidin-1-yl)carbonyl]thiophen-2-yl}-5-fluorobenzenecarbonitrile]", "values": [{"measurement": "EC50", "setting": "HIV-1LAI", "value": 34, "unit": "nM"}, {"measurement": "EC50", "setting": "HIV-1NL4-3 wt", "value": 5, "unit": "nM"}, {"measurement": "EC50", "setting": "HIV-1NL4-3 K103N-Y181C", "value": 40, "unit": "nM"}]}
{"smiles": "N#Cc1cc(F)cc(-c2sc(C(=O)N3CNC(=O)C3)cc2-c2cccc(Cl)c2)c1", "note": "[Example 11, 3-{3-(3-Chlorophenyl)-5-[(4-oxoimidazolidin-1-yl)carbonyl]thiophen-2-yl}-5-fluorobenzenecarbonitrile]", "values": [{"measurement": "EC50", "setting": "HIV-1LAI", "value": 22, "unit": "nM"}, {"measurement": "EC50", "setting": "HIV-1NL4-3 wt", "value": 2, "unit": "nM"}, {"measurement": "EC50", "setting": "HIV-1NL4-3 K103N-Y181C", "value": 123, "unit": "nM"}]}
